# Where a name gives a salt, the structure may show the parent alone.
# Molecular target: T1, recombinant human baculovirus-expressed GST-tagged FASN (Homo sapiens, UniProt P49327)
# T1 construct: GST
# Experiment: FASN enzyme activity assay, fluorescence-based detection of CoA with CPM
# Format: biochemical
# Settings: 5 nM FASN, 150 μM NADPH, 10 μM acetyl-CoA, 25 μM malonyl-CoA, 90 minutes incubation; read-out: IC50 data for Additional Compounds of Formulae I-V(a): Activity
# Method in brief: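 Human GST-tagged FASN, baculovirus-expressed (5 nM), in 50 mM HEPES pH 7.5 with 150 μM NADPH, 10 μM acetyl-CoA, 25 μM malonyl-CoA, 0.5% DMSO; malonyl-CoA-started, 90 min. Released CoA detected with CPM (50 μM dilution), 30 min, fluorescence ex 390/em 530. IC50 from variable-slope sigmoidal fit of % inhibition versus log concentration.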
# T1 sequence (P49327 whole entry): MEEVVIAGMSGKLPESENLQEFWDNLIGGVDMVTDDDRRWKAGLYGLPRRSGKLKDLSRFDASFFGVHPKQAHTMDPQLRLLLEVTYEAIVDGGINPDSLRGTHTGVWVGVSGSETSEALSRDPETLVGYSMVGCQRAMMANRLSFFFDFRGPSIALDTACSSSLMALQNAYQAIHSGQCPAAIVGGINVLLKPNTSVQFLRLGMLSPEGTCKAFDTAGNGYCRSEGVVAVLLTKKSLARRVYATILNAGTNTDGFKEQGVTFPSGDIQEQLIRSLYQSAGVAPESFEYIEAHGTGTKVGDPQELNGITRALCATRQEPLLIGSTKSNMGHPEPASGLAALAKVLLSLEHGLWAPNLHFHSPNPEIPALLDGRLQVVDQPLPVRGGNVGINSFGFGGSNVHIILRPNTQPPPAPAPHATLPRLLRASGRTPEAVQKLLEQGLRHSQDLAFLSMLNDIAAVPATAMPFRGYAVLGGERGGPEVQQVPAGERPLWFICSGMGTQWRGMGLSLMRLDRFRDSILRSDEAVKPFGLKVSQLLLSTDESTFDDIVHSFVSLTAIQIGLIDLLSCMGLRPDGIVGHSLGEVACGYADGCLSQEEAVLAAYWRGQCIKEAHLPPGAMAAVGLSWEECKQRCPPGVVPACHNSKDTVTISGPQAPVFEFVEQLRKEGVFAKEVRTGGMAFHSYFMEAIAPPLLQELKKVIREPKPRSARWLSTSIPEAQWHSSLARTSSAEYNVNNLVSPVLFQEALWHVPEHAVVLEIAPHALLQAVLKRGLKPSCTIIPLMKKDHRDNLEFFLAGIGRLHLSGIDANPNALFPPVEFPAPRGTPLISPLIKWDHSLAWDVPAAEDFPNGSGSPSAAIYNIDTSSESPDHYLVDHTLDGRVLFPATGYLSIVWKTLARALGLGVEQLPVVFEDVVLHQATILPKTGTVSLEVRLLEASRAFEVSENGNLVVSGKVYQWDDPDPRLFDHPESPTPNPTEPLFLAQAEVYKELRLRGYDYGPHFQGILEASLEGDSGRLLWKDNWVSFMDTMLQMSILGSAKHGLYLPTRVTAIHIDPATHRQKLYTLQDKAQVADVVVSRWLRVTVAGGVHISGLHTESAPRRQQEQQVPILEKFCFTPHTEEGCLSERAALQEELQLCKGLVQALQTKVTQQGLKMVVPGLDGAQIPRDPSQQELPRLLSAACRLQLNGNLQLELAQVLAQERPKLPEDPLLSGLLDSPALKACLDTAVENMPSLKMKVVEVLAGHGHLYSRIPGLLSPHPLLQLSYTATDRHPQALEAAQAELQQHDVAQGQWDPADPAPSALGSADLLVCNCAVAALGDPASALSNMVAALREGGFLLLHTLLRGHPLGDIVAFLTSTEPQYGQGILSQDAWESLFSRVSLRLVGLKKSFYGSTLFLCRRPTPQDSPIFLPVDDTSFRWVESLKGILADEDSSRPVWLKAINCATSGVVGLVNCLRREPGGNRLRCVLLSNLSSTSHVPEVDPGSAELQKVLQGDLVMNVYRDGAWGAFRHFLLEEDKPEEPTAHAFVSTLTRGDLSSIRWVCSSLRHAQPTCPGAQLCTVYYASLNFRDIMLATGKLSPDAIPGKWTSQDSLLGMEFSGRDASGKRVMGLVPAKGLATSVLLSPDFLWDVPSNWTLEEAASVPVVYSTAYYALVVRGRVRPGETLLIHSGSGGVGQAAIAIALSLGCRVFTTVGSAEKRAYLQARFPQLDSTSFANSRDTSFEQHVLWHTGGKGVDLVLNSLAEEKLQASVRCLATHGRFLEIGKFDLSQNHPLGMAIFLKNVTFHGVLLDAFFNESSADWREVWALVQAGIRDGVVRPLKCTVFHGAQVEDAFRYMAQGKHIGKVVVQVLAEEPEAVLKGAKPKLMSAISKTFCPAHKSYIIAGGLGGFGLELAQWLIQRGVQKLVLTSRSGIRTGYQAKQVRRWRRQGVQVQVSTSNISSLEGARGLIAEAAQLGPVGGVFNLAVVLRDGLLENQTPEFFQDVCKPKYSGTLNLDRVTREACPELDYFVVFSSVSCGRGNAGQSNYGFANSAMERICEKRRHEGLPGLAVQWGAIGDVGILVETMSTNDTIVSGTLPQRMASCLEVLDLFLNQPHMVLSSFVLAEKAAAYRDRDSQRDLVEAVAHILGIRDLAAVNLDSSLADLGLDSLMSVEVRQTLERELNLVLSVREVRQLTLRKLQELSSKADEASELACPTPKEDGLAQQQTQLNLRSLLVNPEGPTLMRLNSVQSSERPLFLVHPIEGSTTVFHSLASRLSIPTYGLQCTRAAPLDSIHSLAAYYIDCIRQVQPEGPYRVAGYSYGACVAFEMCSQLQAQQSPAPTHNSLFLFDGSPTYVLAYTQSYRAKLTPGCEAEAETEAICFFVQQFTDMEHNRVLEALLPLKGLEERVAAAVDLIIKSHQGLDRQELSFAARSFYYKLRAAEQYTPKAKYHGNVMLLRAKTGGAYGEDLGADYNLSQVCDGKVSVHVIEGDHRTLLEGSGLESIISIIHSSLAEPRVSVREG
row,SMILES,IC50
1,"Cc1c(-c2ccc(OC3CCN(C(=O)CN)CC3)cc2)ccc2cccnc12 [Example 609, 2-Amino-1-[4-[4-(8-methyl-7-quinolyl)phenoxy]-1-piperidyl]ethanone, 2HCl]",1 to 99 nM
2,"Cc1c(-c2ccc(OC3CCN(C(=O)[C@@H]4CCCN4)CC3)cc2)ccc2cccnc12 [Example 621, [4-[4-(8-Methyl-7-quinolyl)phenoxy]-1-piperidyl]-[(2S)-pyrrolidin-2-yl]-methanone]",1000 to 10000 nM
3,"Cc1c(-c2ccc(OC3CCN(C(=O)NCC(C)C)CC3)cc2)ccc2ccnn12 [Example 633, N-Isobutyl-4-[4-(7-methylpyrazolo[1,5-a]pyridin-6-yl)phenoxy]piperidine-1-carboxamide]",1 to 99 nM
4,"Cc1c(-c2ccc(OC3CCN(C(N)=O)CC3)cc2)ccc2nccn12 [Example 615, 4-[4-(5-Methylimidazo[1,2-a]pyridin-6-yl)phenoxy]piperidine-1-carboxamide]",1000 to 10000 nM
5,"Cc1c(-c2ccc(OC3CCN(C(=O)OC(C)(C)C)CC3)cc2)ccc2nccn12 [Example 605, tert-Butyl 4-[4-(5-methylimidazo[1,2-a]pyridin-6-yl)phenoxy]piperidine-1-carboxylate]",1000 to 10000 nM
6,"Cc1c(-c2ccc(OC3CCN(C(=O)OCC4CC4)CC3)cc2)ccc2cccnc12 [Example 553, Cyclopropylmethyl 4-[4-(8-methyl-7-quinolyl)phenoxy]piperidine-1-carboxylate HCl]",1000 to 10000 nM

# Same assay, conditions: 5 nM FASN, 150 μM NADPH, 10 μM acetyl-CoA, 25 μM malonyl-CoA, 90 minutes incubation; read-out: IC50 data for Compounds of Formulae I-V/V(a): Activity
row,SMILES,IC50
1,"CCC(=O)N1CCC(Oc2ccc(-c3ccc4cc(C)cnc4c3)cc2)CC1 [Example 280, 1-{4-[4-(3-Methylquinolin-7-yl)-phenoxy]-piperidin-1-yl}-propan-1-one]",1 to 99 nM
2,"O=C(C1CC1)N1CCC(Oc2ccc(-c3ccc(OCc4ccccc4)cc3F)cc2)CC1 [Example 505, [4-(4′-Benzyloxy-2′-fluorobiphenyl-4-yloxy)-piperidin-1-yl]-cyclopropyl-methanone]",1000 to 10000 nM
3,"O=C([C@H]1CCCO1)N1CCC(Oc2ccc(-c3ccc4cncn4c3)cc2)CC1 [Example 298, [4-(4-Imidazo[1,5-a]pyridin-6-yl-phenoxy)-piperidin-1-yl]-(R)-tetrahydro-furan-2-yl-methanone]",1 to 99 nM
4,"CCC(=O)N1CCC(Oc2ccc(-c3cnc4ccccc4c3)c(Cl)c2)CC1 [Example 203, 1-[4-(3-Chloro-4-quinolin-3-yl-phenoxy)-piperidin-1-yl]-propan-1-one]",1 to 99 nM
5,"O=C([C@H]1CCCO1)N1CCC(Oc2ccc(-c3ccc4cccnc4c3OCCCN3CCCC3)cc2)CC1 [Example 184, (4-{4-[8-(3-Pyrrolidin-1-yl-propoxy)-quinolin-7-yl]-phenoxy}-piperidin-1-yl)-(R)-tetrahydrofuran-2-yl-methanone, HCl]",100 to 999 nM
6,"CC(C)C(=O)N1CCC(Oc2ccc(-c3ccc(-c4ccccc4)nc3)cc2)CC1 [Example 379, 2-Methyl-1-{4-[4-(6-phenylpyridin-3-yl)-phenoxy]-piperidin-1-yl}-propan-1-one]",1000 to 10000 nM
7,"Cc1c(-c2ccc(OC3CCN(C(=O)[C@H]4CCCO4)CC3)c(F)c2)ccc2cccnc12 [Example 226, {4-[2-Fluoro-4-(8-methylquinolin-7-yl)-phenoxy]-piperidin-1-yl}-(R)-tetrahydrofuran-2-yl-methanone]",1 to 99 nM
8,"Cc1c(-c2ccc(OC3CCN(C(=O)C4CC4)C(C)C3)cc2)ccc2cccnc12 (racemic) [Example 365, Cyclopropyl-{2-methyl-4-[4-(8-methylquinolin-7-yl)-phenoxy]-piperidin-1-yl}-methanone HCl]",1000 to 10000 nM
9,"O=C(C1CCC1)N1CCC(Oc2ccc(-c3ccc4cccnc4c3F)cc2)CC1 [Example 24, Cyclobutyl-{4-[4-(8-fluoroquinolin-7-yl)-phenoxy]-piperidin-1-yl}-methanone]",1 to 99 nM
10,"O=C([C@H]1CCCO1)N1CCC(Oc2ccc(-c3ccc4nccn4c3Cl)cc2)CC1 [Example 294, {4-[4-(5-Chloroimidazo[1,2-a]pyridin-6-yl)-phenoxy]-piperidin-1-yl}-(R)-tetrahydrofuran-2-yl-methanone]",1000 to 10000 nM
11,"CCC(=O)N1CCC(Oc2ccc(-c3ccc4cnc(C)cc4c3)cc2)CC1 [Example 430, 1-{4-[4-(3-Methylisoquinolin-6-yl)-phenoxy]-piperidin-1-yl}-propan-1-one]",1000 to 10000 nM
12,"CC(C)C(=O)N1CCC(Oc2ccc(-c3cnc4ccccc4c3)cc2F)CC1 [Example 7, 1-[4-(2-Fluoro-4-quinolin-3-yl-phenoxy)-piperidin-1-yl]-2-methyl-propan-1-one]",1 to 99 nM
13,"O=C(C1CCC1)N1CCC(Oc2ccc(-c3ccc(N4CCOCC4)nc3)cc2)CC1 [Example 388, Cyclobutyl-{4-[4-(6-morpholin-4-yl-pyridin-3-yl)-phenoxy]-piperidin-1-yl}-methanone]",1000 to 10000 nM
14,"O=C([C@H]1CCCO1)N1CCC(Oc2ccc(-c3cnc4sccc4c3)cc2)CC1 [Example 254, (R)-Tetrahydrofuran-2-yl-[4-(4-thieno[2,3-b]pyridin-5-yl-phenoxy)-piperidin-1-yl]-methanone, TFA salt]",1 to 99 nM
15,"Cc1cnc(C)c2ccc(-c3ccc(OC4CCN(C(=O)[C@H]5CCCO5)CC4)cc3)cc12 [Example 471, [4-[4-(1,4-Dimethyl-6-isoquinolyl)phenoxy]-1-piperidyl]-[(2R)-tetrahydrofuran-2-yl]methanone, HCl]",1 to 99 nM
16,"Cc1c(-c2ccc(OC3CCN(C(=O)N4CCOCC4)CC3)cc2)ccc2cccnc12 [Example 99, [4-[4-(8-methyl-7-quinolyl)phenoxy]-1-piperidyl]-morpholino-methanone]",100 to 999 nM

row,SMILES,IC50
1,"CCC(=O)N1CCC(Oc2ccc(-c3ccc4cc(C#N)cnc4c3)cc2)CC1 [Example 277, 7-[4-(1-Propionyl-piperidin-4-yloxy)-phenyl]-quinoline-3-carbonitrile]",100 to 999 nM
2,"CCC(=O)N1CCC(Oc2ccc(-c3cnc4ccccc4c3)cn2)CC1 [Example 132, 1-[4-(5-Quinolin-3-yl-pyridin-2-yloxy)-piperidin-1-yl]-propan-1-one, HCl]",1000 to 10000 nM
3,"Cc1nc2ccc(-c3ccc(OC4CCN(C(=O)[C@H]5CCCO5)CC4)cc3)cn2c1C [Example 289, {4-[4-(2,3-Dimethylimidazo[1,2-a]pyridin-6-yl)-phenoxy]-piperidin-1-yl}-(R)-tetrahydrofuran 2-yl-methanone]",1000 to 10000 nM
4,"O=C(c1ncco1)N1CCC(Oc2ccc(-c3cnc4ccccc4c3)cc2)CC1 [Example 123, Oxazol-2-yl-[4-(4-quinolin-3-yl-phenoxy)-piperidin-1-yl]-methanone; HCl]",1000 to 10000 nM
5,"CC(C)C(=O)N1CCC(Oc2ccc(-c3ccc4cccnc4c3)cn2)CC1 [Example 136, 2-Methyl-1-[4-(5-quinolin-7-yl-pyridin-2-yloxy)-piperidin-1-yl]-propan-1-one, HCl]",1000 to 10000 nM
6,"CC(C)C(=O)N1CCC(Oc2ncc(-c3cnc4ccccc4c3)cn2)CC1 [Example 138, 2-Methyl-1-[4-(5-quinolin-3-yl-pyrimidin-2-yloxy)-piperidin-1-yl]-propan-1-one, 2HCl]",1000 to 10000 nM
7,"COc1cc(-c2ccc(OC3CCN(C(=O)[C@H]4CCCO4)CC3)cc2)cn2nccc12 [Example 424, {4-[4-(4-Methoxypyrazolo[1,5-a]pyridin-6-yl)-phenoxy]-piperidin-1-yl}-(R)-tetrahydrofuran-2-yl-methanone, HCl]",1 to 99 nM
8,"Cc1c(-c2ccc(OC3CCN(C(=O)C(C)(C)O)CC3)cc2)ccc2nccn12 [Example 310, 2-Hydroxy-2-methyl-1-{4-[4-(5-methyl-imidazo[1,2-a]pyridin-6-yl)-phenoxy]-piperidin-1-yl}-propan-1-one]",1000 to 10000 nM
9,"Nc1cc2cc(-c3ccc(OC4CCN(C(=O)[C@H]5CCCO5)CC4)cc3)ccc2cn1 [Example 436, {4-[4-(3-Aminoisoquinolin-6-yl)-phenoxy]-piperidin-1-yl}-(R)-tetrahydro-furan-2-yl-methanone]",1 to 99 nM
10,"Cn1ncc2ccc(-c3ccc(OC4CCN(C(=O)C5CC5)CC4)cc3)cc21 [Example 270, Cyclopropyl-{4-[4-(1-methyl-1H-indazol-6-yl)-phenoxy]-piperidin-1-yl}-methanone. TFA salt]",100 to 999 nM
11,"CCC(=O)N1CCC(Oc2ccc(-c3cnc4ccccc4c3)c(C)c2)CC1 [Example 207, 1-[4-(3-Methyl-4-quinolin-3-yl-phenoxy)-piperidin-1-yl]-propan-1-one]",100 to 999 nM
12,"CCC(=O)N1CCC(Oc2ccc(-c3cncc(Oc4ccccc4)c3)cc2)CC1 [Example 397, 1-{4-[4-(5-Phenoxypyridin-3-yl)-phenoxy]-piperidin-1-yl}-propan-1-one, TFA]",1000 to 10000 nM
13,"CCC(=O)N1CCC(Oc2ccc(-c3ccc4cnc(Cl)cc4c3)cc2)CC1 [Example 413, 1-{4-[4-(3-Chloroisoquinolin-6-yl)-phenoxy]-piperidin-1-yl}-propan-1-one]",1000 to 10000 nM
14,"CCC(=O)N1CCC(Oc2ccc(-c3ccc4cccnc4c3NCCN3CCCC3)cc2)CC1 [Example 335, 1-(4-{4-[8-(2-Pyrrolidin-1-yl-ethylamino)-quinolin-7-yl]-phenoxy}-piperidin-1-yl)-propan-1-one]",1000 to 10000 nM
15,"Cc1cc(-c2ccc(OC3CCN(C(=O)[C@H]4CCCO4)CC3)cc2)c2cccnc2c1 [Example 353, (R)-(4-(4-(7-Methylquinolin-5-yl)phenoxy)piperidin-1-yl)(tetrahydrofuran-2-yl)methanone]",1 to 99 nM
16,"Cc1c(-c2ccc(OC3CCN(C(=O)C(C)(F)F)CC3)cc2)ccc2cccnc12 [Example 358, 2,2-Difluoro-1-{4-[4-(8-methylquinolin-7-yl)-phenoxy]-piperidin-1-yl}-propan-1-one, HCl]",100 to 999 nM

# Source: patent publication US9902696B2, “1,4-substituted piperidine derivatives” (Cephalon, Inc., priority 2015, dated 2018)
